Earlier results on one molecule are cited in article PMC5812370 (Biochemistry, 2017).

For series [1], the target named is uPAR·uPA protein–protein interaction (Homo sapiens, UniProt Q03405).
For another series, the target named is uPAR (Homo sapiens, UniProt Q03405).
uPAR, sequence (Q03405 23-305 limits assumed): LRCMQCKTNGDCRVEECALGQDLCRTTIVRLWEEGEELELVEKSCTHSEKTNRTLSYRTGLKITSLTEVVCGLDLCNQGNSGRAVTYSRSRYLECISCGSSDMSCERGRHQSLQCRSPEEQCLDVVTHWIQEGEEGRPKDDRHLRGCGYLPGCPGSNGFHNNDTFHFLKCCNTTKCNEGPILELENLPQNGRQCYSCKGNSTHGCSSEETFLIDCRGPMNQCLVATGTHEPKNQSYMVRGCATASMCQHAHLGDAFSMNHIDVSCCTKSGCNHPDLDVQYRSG

uPAR·uPA protein–protein interaction, sequence (Q03405 23-305 limits assumed): as above

Regarding `O=C(O)c1cccc(Nc2cc(N3CCCCCC3)c3noc4c3c2C(=O)c2ccccc2-4)c1` [Compound 2], the “IC50 for inhibition of the uPAR·uPA complex (in words)” value in series [1] was “single-digit micromolar”. In addition, at uPAR, the “binding affinity to uPAR (in words)” value is “submicromolar”.
